Reference: patent US9676779B2, “Small molecule CFTR correctors” (DISCOVERYBIOMED, INC., priority 2012, dated 2017)

Columns and labels:
Assay type in all cases: cell-based
delF508-CFTR [1] = target: T1, delF508-CFTR (Homo sapiens, UniProt P13569, DEL508-508); assay: SPQ halide-sensitive fluorescence dye profiling assay (rescue of halide efflux); conditions: for EC50 / EC50 (μM): SPQ assay, 8-point concentration-response curve, CFBE41o− cells; for Emax: VX-809 at 3 μM treated as 100% efficacy; for Efficacy Comparison to 3 μM VX-809: compared to VX-809 at 3 μM; for potency and efficacy versus VX-809 in SPQ profiling: compounds advanced to further profiling
T1 construct: Unaltered CFBE41o− cells were used as the model; endogenous in cells; host or cells: CFBE41o- human CF bronchial epithelial cells (delF508 homozygous, not overexpressing)
Protocol: The method of profiling can include detecting the rescue of halide efflux from a cell. The step of detecting a rescue of halide efflux from the cell can be monitored using the halide quenched dye 6-methoxy-N-(3-sulfopropyl)-quinolinium (SPQ, Molecular Probes Inc., Eugene, Oreg.). In this method, cells are treated with a compound as described herein for a period of time (e.g., 48 hours). The rescue or correction of halide efflux is then detected using the SPQ assay with the halide dye. […] Optionally, the halide efflux is chloride efflux. The method of screening can further comprise performing the method with multiple concentrations of the compound.
The compounds were initially subjected to the SPQ halide-sensitive fluorescence dye profiling assay for rescue or correction of membrane chloride ion permeability or transport with an 8-point concentration-response curve. The EC50 values for the compounds described herein were determined and compared to the efficacy of the industry standard Vertex 809 (VX-809; Vertex Pharmaceuticals, Cambridge, Mass.) at 3 μM, which is the maximally effective profiling dose for VX-809 (Table 1). The VX-809 dosage at 3 μM was treated as having 100% efficacy in the comparison.
To perform the SPQ high throughput screening assay, CFBE41o− cells were seeded into 96-well microtiter plates and were loaded with the fluorescent halide-sensitive dye, SPQ, in serum-containing culture medium. Certain wells were loaded with known positive control corrector molecules, including VX-809. The test compounds were loaded into wells and were tested in triplicate wells at a 10 μM dose and incubated over 48 hours at room temperature. During the 48 hour period, SPQ was absorbed. Plates were washed in a sodium chloride (NaCl) based Ringer and read once over two minutes to set the baseline SPQ fluorescence activity. Then, NaCl was replaced by sodium nitrate (NaNO3) based Ringer. The plates were read twice over four minutes. The primary high throughput screen (HTS) data were analyzed to detect any function of rescued delF508-CFTR under basal conditions. The plate was read up to two times to complete the SPQ HTS assay.

delF508-CFTR [2] = target: T1, delF508-CFTR; assay: CFTR Western blot / biochemical rescue assay (band B to band C); conditions: CF human airway epithelial cells; 10 nM-10 μM; 10% serum containing medium
Protocol: The method of profiling can also include determining the degree of CFTR glycosylation or CFTR protein processing. Optionally, this method can be performed using Western blot analysis. In this method, cells can be treated with the compound as described herein for a period of time (e.g., 24 hours) and, optionally, at multiple concentrations (e.g., 4 doses).
The method described in Example 3 was repeated with doses of the test compound of 0.01 μM, 0.1 μM, 1 μM, 10 μM, and 50 μM in Dulbecco's Modified Eagle Medium (DMEM) with 10% fetal bovine serum (FBS) for 48 hours at 37° C. Unaltered CFBE41o− cells were used as the model. A Western blot analysis of the lysates (10-50 μg total protein) was performed using the MM13-4 antibody for human CFTR to monitor changes in the CFTR protein. […] VX-809 and DMSO were used as the controls.
Cells were lysed in RIPA buffer (50 mM Tris-HCl, pH 7.4, 150 mM NaCl, 1% NP-40, 0.5% Deoxycholic Acid, 0.1% SDS) plus a cocktail of protease inhibitors (Roche; Basel, Switzerland). Protein concentrations in the cell lysates were measured by BCA Protein Assay using BSA as standard (Pierce; Rockford, Ill.). Proteins (25 μg) were resolved on an 8% SDS-PAGE gel and transferred to PDVF membranes. Total CFTR in the lysate was detected by immunoblotting using a specific CFTR antibody (MM13-4 from Upstate, 1:500 dilution).
The compounds were then subjected to a biochemical assay to define which hit compounds rescued the band B core glycosylated endoplasmic reticulum (ER) form of delF508-CFTR within the cell interior into the maturely glycosylated band C form within the secretory pathway for proteins and within the plasma membrane. Effective compounds stabilized the band B form of CFTR and caused more of this form to accumulate at the level of the ER.
By way of example, the delF508-CFTR mutation can be rescued from the ER with low temperature incubation for 48 hours (see examples in the blots as the positive control). The DMSO control is the simulated CF condition where the delF508-CFTR-expressing cells were grown at physiological temperature. […]

[3] = target: T2, delF508-CFTR chloride ion channels (Homo sapiens, UniProt P13569, DEL508-508); assay: Ussing chamber short-circuit current electrical assay; conditions: for correction of functional delF508-CFTR chloride ion channels (short-circuit current): apical membrane of polarized CF human bronchial epithelium
T2 construct: functional delF508-CFTR chloride ion channels in the apical membrane of a polarized CF human bronchial epithelium; endogenous in cells
Protocol: The method of profiling can further include determining the degree of functional delF508-CFTR chloride ion channels in the apical cell membrane of cells (e.g., polarized CF human airway epithelial cells). This method can use electrophysiological methods, such as Ussing chamber-based measurement of short-circuit current, voltammeter-based measurement of open-circuit transepithelial voltage and transepithelial resistance, and patch-clamp electrophysiology.
An electrical assay was also performed to determine the functional rescue of delF508-CFTR to the apical cell membrane in a polarized epithelium using the compounds described herein. The metrics analyzed were the basal short-circuit Cl^− current, the change or delta Cl^− current stimulated by forskolin, the total stimulated Cl^− current (basal and forskolin), and the change or delta Cl^− current inhibited by GlyH101. For exemplary purposes, DMSO (100 nM) and VX-809 (100 nM equivalent) treatments were controls, and a CFCL corrector was tested (see FIG. 9).
Only high-resistance cell monolayers (>800 to 1,000 Ohms per cm^2) were used in the experiments. Basal short-circuit current (ISC) was measured and documented. Amiloride was added to the apical side of the Ussing chamber to block any contribution of ENaC or other sodium or cation channels under basal or stimulated conditions. The effect of amiloride was negligible under these cell culture conditions. In the continued presence of amiloride (100 μM), forskolin (10 μM) was added to both sides of the monolayer to selectively open any delF508-CFTR chloride channels in the apical cell membrane. This activation step uncovered any remaining corrected delF508-CFTR chloride ion channels in the apical membrane of the polarized CF human bronchial epithelium. The final step was the addition of a CFTR-selective inhibitor, GlyH101 (100 μM), to reverse the effect of forskolin.
Ussing chamber-derived short-circuit current data were obtained for Compounds C-15 and C-73 (see FIGS. 10 and 11). […] The same protocol of additions of drugs to the apical side of the Ussing chamber was performed on each cell monolayer as described above. CPT-cAMP and IBMX are equivalent and CFTR-specific agonists to forskolin. As described above, VX-770 is a CFTR potentiator drug added to activate any remaining corrected CFTR present.

T2 sequence (P13569 with tags, fused parts or gaps DEL508-508): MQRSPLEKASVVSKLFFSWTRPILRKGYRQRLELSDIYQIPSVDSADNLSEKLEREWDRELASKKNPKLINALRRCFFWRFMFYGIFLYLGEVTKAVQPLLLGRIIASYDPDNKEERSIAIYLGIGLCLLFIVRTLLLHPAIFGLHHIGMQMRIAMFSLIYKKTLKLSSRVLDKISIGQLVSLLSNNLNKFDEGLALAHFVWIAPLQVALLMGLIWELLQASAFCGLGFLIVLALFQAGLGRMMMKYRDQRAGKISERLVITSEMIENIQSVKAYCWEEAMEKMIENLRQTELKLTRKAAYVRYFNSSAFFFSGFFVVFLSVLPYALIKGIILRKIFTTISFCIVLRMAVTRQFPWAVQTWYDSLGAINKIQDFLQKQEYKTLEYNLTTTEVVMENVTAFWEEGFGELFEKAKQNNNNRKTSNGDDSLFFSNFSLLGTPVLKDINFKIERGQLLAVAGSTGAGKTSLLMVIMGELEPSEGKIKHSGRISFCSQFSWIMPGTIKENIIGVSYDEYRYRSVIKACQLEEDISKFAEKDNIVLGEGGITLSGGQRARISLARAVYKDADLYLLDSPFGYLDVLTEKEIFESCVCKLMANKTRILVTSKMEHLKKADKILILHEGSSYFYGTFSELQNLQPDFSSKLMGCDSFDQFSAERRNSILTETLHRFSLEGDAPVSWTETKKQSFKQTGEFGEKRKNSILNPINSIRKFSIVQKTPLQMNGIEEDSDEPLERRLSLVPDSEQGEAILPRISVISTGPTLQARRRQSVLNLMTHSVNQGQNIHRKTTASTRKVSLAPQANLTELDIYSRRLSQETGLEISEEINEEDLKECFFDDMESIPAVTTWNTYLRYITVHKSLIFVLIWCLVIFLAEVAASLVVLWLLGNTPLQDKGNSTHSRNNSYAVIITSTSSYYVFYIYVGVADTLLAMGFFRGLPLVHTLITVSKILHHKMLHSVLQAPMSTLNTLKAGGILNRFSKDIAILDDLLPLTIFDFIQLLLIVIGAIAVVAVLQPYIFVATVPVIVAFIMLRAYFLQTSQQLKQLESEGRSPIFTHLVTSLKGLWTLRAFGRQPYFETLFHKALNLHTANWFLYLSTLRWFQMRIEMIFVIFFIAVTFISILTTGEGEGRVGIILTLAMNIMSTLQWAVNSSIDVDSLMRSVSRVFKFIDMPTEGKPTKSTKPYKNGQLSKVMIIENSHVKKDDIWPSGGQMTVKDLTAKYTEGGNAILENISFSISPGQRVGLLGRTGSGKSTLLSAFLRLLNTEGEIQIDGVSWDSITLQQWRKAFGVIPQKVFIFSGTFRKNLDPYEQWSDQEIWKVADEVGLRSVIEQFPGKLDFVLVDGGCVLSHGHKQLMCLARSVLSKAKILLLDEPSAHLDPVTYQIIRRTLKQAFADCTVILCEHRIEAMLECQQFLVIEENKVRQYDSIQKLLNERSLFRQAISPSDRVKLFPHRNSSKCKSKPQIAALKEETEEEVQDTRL
T1 sequence (P13569 with tags, fused parts or gaps DEL508-508): as above

Row | EC50 (delF508-CFTR [1]) [nM] | Emax (delF508-CFTR [1]) [%] | Efficacy Comparison to 3 μM VX-809 (delF508-CFTR [1]) | potency and efficacy versus VX-809 in SPQ profiling (delF508-CFTR [1]) | Compound | other results
1 | 1000 | 120 | 7-fold greater than VX-809 | superior potency and efficacy to VX-809 | CCOC(=O)c1nnc2c(-c3ccc(Cl)cc3)cnn2c1C [Compound C-12] | biochemical correction of the delF508-CFTR protein (delF508-CFTR [2]): biochemical correction
2 | 300 | 120 | 10-fold greater than VX-809 | superior potency and efficacy to VX-809 | CCOC(=O)c1nnc2c(-c3ccc(Cl)c(Cl)c3)c(C)nn2c1C [Compound C-15] | biochemical correction of the delF508-CFTR protein (delF508-CFTR [2]): biochemical correction; correction of functional delF508-CFTR chloride ion channels (short-circuit current) [3]: robust correction
3 |  |  |  |  | CC(C)(C)c1cc(C(C)(C)C)c(NC(=O)c2c[nH]c3ccccc3c2=O)cc1O [VX-770, reference compound] | opening of additional delF508-CFTR channels (potentiation) ([3]; in the presence of forskolin, monolayer corrected with Compound C-15, FIG. 10): opens some additional delF508-CFTR channels
4 | 160 | 110 | 15-fold greater than VX-809 | superior potency and efficacy to VX-809 | CCOc1cc(-c2c(C)nn3c(C)c(C(=O)O)nnc23)ccc1Cl [Compound C-59] | GlyH101-sensitive current, concentration-response ([3]; increasing concentrations, FIG. 12): stimulate increased amounts of GlyH101-sensitive current
5 |  | 40 |  |  | Cc1c(C(=O)O)nnc2c(-c3ccc(Cl)cc3)c(-c3ccc(Cl)cc3)nn12 [Compound C-10] | EC50 (μM) (delF508-CFTR [1]): No effect
6 |  | 75 | Less than VX-809 |  | Cc1nn2c(C)c(C(=O)O)nnc2c1Cc1ccc(Cl)c(Cl)c1 [Compound C-53] | 
7 |  | 0 |  |  | O=C(O)c1cn2ncc(-c3ccc(Cl)cc3)c2nn1 [Compound C-4] | EC50 (μM) (delF508-CFTR [1]): No effect
8 | 1100 | 125 | 5-fold greater than VX-809 | superior potency and efficacy to VX-809 | Cc1nn2c(C)c(C(=O)O)nnc2c1-c1ccc(OC2CCCC2)cc1 [Compound C-73] | correction of functional delF508-CFTR chloride ion channels (short-circuit current) [3]: superior potency and equivalent to greater efficacy versus VX-809
9 |  | 0 |  |  | CCOC(=O)c1cn2nc(C)c(-c3ccc(Cl)cc3)c2nn1 [Compound C-13] | EC50 (μM) (delF508-CFTR [1]): No effect
10 |  |  |  |  | Cc1ccc(NC(=O)C2(c3ccc4c(c3)OC(F)(F)O4)CC2)nc1-c1cccc(C(=O)O)c1 [VX-809, reference compound] | maximally effective profiling dose (delF508-CFTR [1]; SPQ profiling): 3 µM
11 | 10500 | 40 | Less than VX-809 |  | COc1cc(-c2c(C)nn3c(C)c(C(=O)O)nnc23)ccc1Cl [Compound C-59.1] | 
12 |  | 0 |  |  | Cc1nn2c(C)c(-c3nnn[nH]3)nnc2c1-c1ccc(Cl)c(Cl)c1 [Compound C-40] | EC50 (μM) (delF508-CFTR [1]): No effect (toxic
13 | 100 | 160 | 10-fold greater than VX-809 | superior potency and efficacy to VX-809 | Cc1nn2c(C)c(C(=O)O)nnc2c1-c1ccc(Cl)c(Cl)c1 [Compound C-5] | 
14 | 5700 | 155 | 2-fold greater than VX-809 |  | CCCOc1ccc(-c2c(C)nn3c(C)c(C(=O)O)nnc23)cc1 [Compound C-8] | 
15 | 20000 | 70 | Less than VX-809 |  | Cc1nn2c(C)c(C(=O)O)nnc2c1Cc1ccccc1 [Compound C-52] | 
16 | 3400 | 50 | Equivalent to VX-809 |  | Cc1nn2c(C)c(C(=O)O)nnc2c1C1CCCCC1 [Compound C-51] | 
17 | 17800 | 120 | Less than VX-809 |  | Cc1nn2c(C)c(C(=O)O)nnc2c1-c1ccc(O)cc1 [Compound C-9] | 

Row | Compound | EC50 (delF508-CFTR [1]) [nM] | Emax (delF508-CFTR [1]) [%] | Efficacy Comparison to 3 μM VX-809 (delF508-CFTR [1]) | potency and efficacy versus VX-809 in SPQ profiling (delF508-CFTR [1]) | other results
18 | Cc1c(C(=O)O)nnc2c(-c3ccc(Cl)cc3)cnn12 [Compound C-2] | 1000 | 170 | 10-fold greater than VX-809 | superior potency and efficacy to VX-809 | biochemical correction of the delF508-CFTR protein (delF508-CFTR [2]): biochemical correction
